In PMC5382548 (Scientific Reports, 2015):

Key:
[1] = tested on: p21^KRAS protein in HCT116 cells; experiment: p21KRAS protein immunoblot, HCT116; assay type: cell-based, human; details: IC50 concentration, 72 h; cell line not given
Method: (a) KRAS mRNA steady-state expression was evaluated by Taqman Real-time RT-PCR using specific Taqman Assays for KRAS and β-Actin for normalization. KRAS mRNA steady-state expression levels were calculated by the ΔΔCt method, using DMSO (vehicle control) for calibration; and (b) KRAS protein steady-state expression evaluated by immunoblot relative to control (DMSO vehicle) Results are expressed as mean ± SEM of at least three independent experiments; *p < 0.05 and §p < 0.01 from DMSO (vehicle control).
In agreement with its reported capacity to accumulate in cytoplasm, bind to UTR1 and UTR2 RNA G4[14][20] and inhibit NRAS translation, TMPyP4 reduced the levels of p21^KRAS by ~75% in HCT116 cells. […]
Samples were homogenized in ice-cold 1:1 solution of buffer A [10 mm Tris•HCl pH 7.6, 5 mm MgCl2, 1.5 mm KOAc, 2 mm dithiothreitol (DTT), and Halt Protease and Phosphatase inhibitor cocktail, EDTA-free (#78445, Thermo Scientific)] and buffer 2X (10 mm Tris•HCl pH 7.6, 1% Nonidet-P40, and Halt Protease and Phosphatase inhibitor cocktail), by vigorous vortexing and incubated on ice for 30 min. […] Protein concentrations were determined using the BioRad protein assay kit according to the manufacturer’s instructions. Steady-state levels of KRAS protein were determined by immunoblot analysis. […] Steady-state protein levels were expressed as mean ±SEM from at least three independent experiments.

[2] = tested on: 26ds (ds26) (DNA, duplex) CAATCGGATCGAATTCGATCCGATTG; experiment: spectrofluorimetric titration, one-site saturation fit; details: 60 mM K+; K-cacodylate pH 7.4, 25 °C; 1 μM compound; SD ≤ 0.2 × 10^6
[3] = tested on: KRAS mRNA in Panc-1 cells; design: method as in PMID 18490377; details: 12 or 24 hours, 50 μM; cited from earlier work
[4] = tested on: HT21 (DNA, G4) GGGTTAGGGTAGGGTTAGGG; experiment: circular dichroism; details: 60 mM K+; K-cacodylate pH 7.4, 25 °C; hybrid G4 changes to antiparallel
KRAS21R G4 = experiment: Binding stoichiometry, Job plot (continuous variation); design: species or system human; details: [3e] + [G4] = 4 μM, 25°C
Method: In order to determine the number of ligand-binding sites, continuous variation analysis (Job plot)[27] of 3e with KRAS21R was performed. Plotting of fluorescence as a function of the mole fraction of 3e (χ) gave linear dependences at high and low molar fractions (Figure S9b).
The binding stoichiometry of indolo[3,2-c]quinoline derivative 3e with KRAS21R G4 was obtained by spectrophotofluorimetry at 25°C using the Job method of continuous variation. A previously annealed G4 stock solution at 25 μM (heating to 95°C for 10 min, followed by slow cooling to RT) of the non-labelled oligonucleotide sequences KRAS21R in K-cacodylate buffer pH 7.4 (containing 60 mM K^+) was used. Test compound was prepared at 1 mM concentration in HPLC-grade water (10% DMSO) stock solution. The rest of the dilutions were performed using K-cacodylate buffer. Total concentration of ligand and G4 in the solution was kept constant ([3e] + [G4] = 4 μM) as previously described.
Figure S9 | a) CD titration spectra of the KRAS21R and induced by titration with 3e in K-cacodylate buffer pH 7.4, containing 60 mM K+ at 25 °C. Solid black line – Pure G4 DNA at […]
sequentially from the top around 260 nm; b) Job Plot of 3e in complex with KRAS21R G4 in K-cacodylate buffer pH 7.4, containing 60 mM K+, at 25 °C. The sum of the concentrations of 3e and G4 was kept constant at 4 µM.
Figure S10. […]

## CCN(CC)CCCNc1ccc2c(c1)c1[nH]c3ccccc3c1c[n+]2C [2d]
[1]
  KRAS protein levels reduced to (% remaining): ~ 50%

## Cn1cc2c3ccccc3nc-2c2cc(Br)ccc21 [2a, 2-bromo-5-methyl-indolo[3,2-c]quinoline]
[2]
  Ka: 800000 M⁻¹

## C[n+]1ccc(-c2c3nc(c(-c4cc[n+](C)cc4)c4ccc([nH]4)c(-c4cc[n+](C)cc4)c4ccc([nH]4)c(-c4cc[n+](C)cc4)c4nc2C=C4)C=C3)cc1 [TMPyP4, reference compound]
[3]
  Decrease in KRAS mRNA levels: ~30%

## CCN(CC)CCCNc1ccc2c(c1)[nH]c1c2c[n+](C)c2ccc(NCCCN(CC)CC)cc12.[Cl-] [3e]
[4]
  binding: yes
KRAS21R G4
  Job plot molar fraction at intersection: 0.61
